From patent publication US4389412A, “Substituted cyclopropanecarboxylic acid esters and pesticidal compositions containing the same as active ingredient” (priority 1979, dated 1983)
In brackets after ≈: the same amount, converted by molar mass.

How the values were obtained:
[1] = tested on: brown planthoppers (Nilaparvata lugens); assay: Utility Example-7: 0.5% dust on rice seedlings, brown planthoppers; assay type: in vivo; conditions: 1 kg per 10 ares, 24 hours
Excerpt: (§1) A 0.5% dust preparation of each of the cis- and trans-isomers and a 50:50 mixture of the cis- and trans-isomers of Compound (1) and of Compound (2) as prepared by the procedure described in Formulation Example-4 was applied to rice seedlings, on which 30 adult brown planthoppers (Nilaparvata lugens) were released, by means of a bell-jar duster at the rate of 1 kg per 10 ares. […] In all cases, the mortality was not less than 90%.

[2] = tested on: small brown planthoppers (Laodelphax striatellus Fallen); assay: Utility Example-3: spray on rice plants, small brown planthoppers; assay type: in vivo; conditions: 7 ml/pot, 24 hours
Experimental: (§2) A 30% emulsifiable concentrate of each of the cis- and trans-isomers and a 50:50 mixture of the cis- and trans-isomers of Compound (1) and of Compound (2) as prepared by the procedure described in Formulation Example-1 was diluted with water to a concentration of 80 ppm as active compound. Rice plants 4 weeks after sowing in pots (each pot 6 cm in diameter, 7 seedlings) were sprayed with the above diluted solution at the rate of 7 ml/pot and, after drying in the air, each pot was covered with a wire-mesh cage. Then, 30 adult small brown planthoppers (Laodelphax striatellus Fallen) were released into the cage. The pots were kept in a constant-temperature chamber at 25° C. […] In all groups, the mortality was not less than 90%.

[3] = tested on: two-spotted spider mites (Tetranychus urticae Koch); assay: Mortality test with two-spotted spider mites by spray application method; assay type: in vivo; conditions: 48 h, 200 ppm spray, two days, read-out: Percent decrease of population (%)
Experimental: Mortality test with two-spotted spider mites (Tetranychus urticae Koch) by spray application method
To a 5% aqueous solution of acetone was added dropwise a small amount of Tween-20 (polyethylene sorbitan monolaurate) as a surfactant. […] From 30 to 50 adult two-spotted spider mites (Tetranychus urticae Koch) were released on the leaves of kidney-bean plants in the dicotyledonous stage in a pot 9 cm in diameter, followed by a spray application of the above solution. The pot was kept in a constant-temperature chamber at 26° C. and two days later the mites were examined for deaths. The percent decrease of population was then calculated.

[4] = Fish toxicity test with killifish; assay type: in vivo, Orizias latipes; conditions: water, killifish, 25±1° C., read-out: TLm (48 hrs.)
Experimental: Fish toxicity test with killifish (Orizias latipes)
An acetone solution of one of the test compounds as mentioned in Table 8 was prepared by adding said test compound to 15 ml of acetone. To 10 liters of water was added a predetermined amount of the above acetone solution and the mixture was stirred thoroughly to prepare an aqueous solution containing the test compound in a predetermined concentration. This was used as a test water. After the each test water was moderately aerated, ten killifishes (Orizias latipes) with a body weight of about 0.25 g and a body length of about 2.5 cm were released into said each test water which was maintained at 25±1° C. After 48 hours, the test fish was examined for death. The TLm (median tolerance limit, ppm) was determined.

[5] = tested on: houseflies (Musca domestica); assay: Mortality test with houseflies by topical application method; conditions: 24 h
Experimental: Mortality test with houseflies (Musca domestica) by topical application method
Each of the compounds according to this invention and the control compounds (Table 2) was accurately weighted and a 0.1% solution of each sample in acetone was prepared. Female adult houseflies (Musca domestica) resistant to organophosphorus pesticides, were anesthetized with ether and 0.5 μl or 1.0 μl of the above solution was micropipetted onto the prothoracic dorsal region of each insect. The insects were then put in a high-walled dish together with feed and the dish was covered with a wire-mesh cover and kept at a temperature of 25° C. The test insects were used in groups of 30 individuals each. After 24 hours the insects were examined for deaths and the percent mortality was calculated.

[6] = tested on: green rice leafhoppers (Nephotettix cincticeps); assay: Utility Example-6: 0.5% dust on rice seedlings, green rice leafhoppers; assay type: in vivo; conditions: 1 kg per 10 ares, 24 hours, resistant to organophosphorus and carbamate pesticides
Excerpt: as §1, with “seedlings” for “seedlings, on which 30 adult brown planthoppers (Nilaparvata lugens) were released,”, “ares. Then, 30 green rice leafhoppers (Nephotettix cincticeps) resistant to organophosphorus and carbamate pesticides were released.” for “ares.”

[7] = tested on: green rice leafhoppers (Nephotettix cincticeps Uhler); assay: Utility Example-4: 0.2% dust on rice seedlings, green rice leafhoppers; assay type: in vivo; conditions: 5 kg per 10 ares, 24 hours, resistant to organophosphorus and carbamate pesticides
Excerpt: A 0.2% dust preparation of each of the cis- and trans-isomers and a 50:50 mixture of the cis- and trans-isomers of Compound (1) and of Compound (2) as prepared by the procedure described in Formulation Example-3 was applied to rice seedlings by means of a bell-jar duster at the rate of 5 kg per 10 ares. […] In all cases, the mortality was not less than 90%.

[8] = tested on: tobacco cutworms (Prodenia litura Fabricius); assay: Mortality test with tobacco cutworms by topical application method; assay type: in vivo; conditions: 24 h
Experimental: Mortality test with tobacco cutworms (Prodenia litura Fabricius) by topical application method
Using a microsyringe, 0.5 μl of the above solution was dripped onto the thoracic adbominal region of each of 3-instar tobacco cutworm (Prodenia litura Fabricius) larvae. […] The test larvae were used in groups of 20 individuals each.

[9] = tested on: rice stem borers (Chilo suppressalis Walker); assay: Mortality test with rice stem borers by topical application method; assay type: in vivo; conditions: 24 h
Experimental: Mortality test with rice stem borers (Chilo suppressalis Walker) by topical application method
Using a microsyringe, 0.5 μl of the above solution was applied to the thoracic abdominal region of each final-instar larva of rice stem borer (Chilo suppressalis Walker). […] The test larvae were used in groups of 20 individuals each.

[10] = tested on: green rice leafhoppers (Nephotettix cincticeps Uhler); assay: Utility Example-2: spray on rice plants, green rice leafhoppers; assay type: in vivo; conditions: 7 ml/pot, 24 hours
Experimental: as §2, with “and” for “and of”, “above” for “above diluted”, “Then, 20 female” for “Then, 30”, “adult green rice leafhoppers (Nephotettix cincticeps Uhler)” for “adult small brown planthoppers (Laodelphax striatellus Fallen)”, “The caged” for “The”, “mortality values were” for “mortality was”

[11] = Toxicity test with water-fleas; assay type: in vivo, Daphnia pulex; conditions: water, 25±1° C., read-out: TLm, Water-flea (6 hrs.)
Experimental: Toxicity test with water-fleas (Daphnia pulex)
An acetone solution of one of the test compounds as mentioned in Table 10 and Tween-20 (the same surfactant as mentioned hereinbefore) was prepared. To 100 ml of water in a high-walled dish (9 cm in diameter, 7 cm deep) was added the above acetone solution. The mixture was stirred thoroughly to prepare an aqueous solution containing the test compound in a predetermined concentration. This was used as a test water. Twenty water-fleas (Daphnia pulex) were released into each test water which was maintained at 25±1° C. After 6 hours, the water-fleas were examined for deaths. The TLm (median tolerance limit, ppm) was determined.

[12] = Fish toxicity safety factor (TLm divided by maximum concentration in cover water); set-up: species or system carp; conditions: in vivo, TLm / maximum concentration in cover water at LC50 application (100 l per 10 ares, 5 cm depth)
Experimental: To further confirm the low toxicity to fish and high pesticidal activity of Compounds (1) and (2) according to this invention as evidenced by the fish toxicity tests with carps and the above tests, fish toxicity safety factors were calculated from the fish toxicity and pesticidal test data. These fish toxicity safety factors are indicators of safety to fish inhabiting a paddy field to which Compounds (1) and (2) may be actually applied for pest control purposes.
It is first assumed that such a pesticidal solution would normally be applied at the rate of 100 l per 10 ares of paddy field. It is also assumed that a solution (100 l) corresponding to the LC50 of the compounds would be applied to 10 ares of a paddy field carrying a cover water with a depth of 5 cm above ground surface and that all the solution would then find its way into the cover water. The expected maximum concentration of the compound in the cover water is then calculated. The fish toxicity safety factor of a pesticidal compound is defined as the value obtained by dividing the TLm (ppm) of the particular compound by the maximum concentration of the compound in cover water. The meaning of the value of the fish toxicity safety factor being one (1) is that the maximum concentration of the particular compound in cover water corresponds to the TLm of said compound. It is understood that when the pesticidal compound having a fish toxicity safety factor value of less than one (1) is applied to a paddy field, it has a risk of destroying the fish inhabiting there, and that the higher the safety factor value, the higher is the safety of the compound to fish.
This fish toxicity safety factor will now be explained in further detailed by taking the trans-isomer of Compound (2) of this invention as an example.
On the other hand, the toxicity to fish of this compound is TLm >10 ppm. Therefore, by dividing the TLm (i.e. >10 ppm) by the above cover water maximum concentration (i.e. 0.36 ppm), we obtain a fish toxicity safety factor of >28. Thus, the concentration of the trans-isomerof Compound (2) which kills 50% of pests corresponds to less than 1/28 of the concentration of the same isomer which kills 50% of fish. In other words, this means that the trans-isomer of Compound (2) is extremely safe to fish.

carp and water flea = assay: Fish toxicity ranking according to Japanese regulations; set-up: species or system Cyprinus carpio L; Daphnia pulex; conditions: from TLm for carp and water flea
Experimental: The above ranking with symbols A, B and C were determined according to Japanese regulations relative to application of agricultural chemicals, and these symbols are defined as follows: […]
A: TLm (48 hrs.) value >10 ppm for carp and TLm (3 hrs.) value >0.5 ppm for water flea, wherein toxicity to fishes is not observed by usual application.
B: TLm (48 hrs.) value 10-0.5 ppm for carp; or TLm (48 hrs.) value >10 ppm for carp and TLm (3 hrs.) value <0.5 ppm for water flea, wherein appreciable toxicity to fishes is not observed by usual application but may be observed when applied to wide area at one time.
C: TLm (48 hrs.) value <0.5 ppm for carp, wherein toxicity to fishes is so strongly observed by usual application that both the application method and application area are strictly restricted.

[13] = tested on: brown planthoppers (Nilaparvata lugens Stal); assay: Utility Example-1: LC50 on adult brown planthoppers on dipped rice plants; assay type: in vivo; conditions: Nilaparvata lugens, 24 h, 25° C., read-out: Pesticidal activity LC50
Experimental: A 1% emulsifiable concentrate of each test compound as prepared by the procedure described in Formulation Example 2 was diluted with water to prepare a test solution of predetermined concentration.
Rice plants, 4 weeks after sowing (cultivated in a pot 6 cm in diameter, 7 seedlings) were dipped in the above solution and after allowing them to dry in the air, the pot was covered with a wire-mesh cage. Then, 30 adult brown planthoppers (Nilaparvata lugens Stal) were released into the cage and the pot was kept in a constant-temperature chamber at 25° C.

[14] = Fish toxicity test with carp; assay type: in vivo, Cyprinus carpio L; conditions: carp, water, 48 hrs., 21±1° C.; read-out: TLm, Carp (48 hrs.)
Experimental: Fish toxicity test with carp (Cyprinus carpio L)
An acetone solution of one of the test compounds as mentioned in Table 10 and Tween-20 (the same surfactant as mentioned hereinbefore) was prepared. To 50 liters of water (30 cm deep) in a glass tank was added the above acetone solution. The mixture was stirred thoroughly to prepare an aqueous solution containing the test compound in a predetermined concentration. This was used as a test water. Five carps (Cyprinus carpio L) with a body weight of about 6 g and a body length of about 6 cm were released into each test water which was maintained at 21±1° C. After 48 hours, the test fish was examined for death. The TLm (median tolerance limit, ppm) was determined. The test water was moderately aerated.

SMILES | mortality [1] | mortality at 80 ppm [2] | mortality at 200 ppm [3] | LC50 at 48 h [4] | mortality at 0.5 µg/female [5] | mortality at 1 µg/female [5] | mortality [6] | mortality [7] | mortality at 0.0001 mg [8] | mortality at 1 µg/larva [9] | mortality at 10 µg/larva [9] | mortality at 80 ppm [10] | LC50 at 6 h [11] | selectivity ratio [12] | Ranking (carp and water flea) | LC50 [13] | LC50 at 48 h [14]
CC1(C)[C@H](C=C(Cl)Cl)[C@@H]1C(=O)OCc1cccc(Oc2ccc(Cl)cc2)c1 (relative stereo) [Compound (1) cis-, 3-(4-chlorophenoxy)benzyl cis-2,2-dimethyl-3-(2,2-dichlorovinyl)cyclopropanecarboxylate] | not less than 90% | ≥ 90% | 100% | > 10 µg/mL | 100% | 100% | not less than 90% | not less than 90% | 100% | 100% | 100% | ≥ 90% |  |  |  |  | 
CC1(C)[C@H](C(=O)OC(C#N)c2cccc(Oc3ccc(Cl)cc3)c2)[C@@H]1C=C(Cl)Cl (relative stereo) [Compound (G) cis-] |  |  |  |  |  |  |  |  |  | 40% | 100% |  | 5 µg/mL (≈ 11.1 µM) | 0.01 | C (TLm (48 hrs.) value <0.5 ppm for carp, wherein toxicity to fishes is so strongly observed by usual application that both the application method and application area are strictly restricted.) | 620 µg/mL (≈ 1380 µM) | 0.013 µg/mL (≈ 0.0288 µM)
CC1(C)[C@H](C=C(Cl)Cl)[C@H]1C(=O)OC(C#N)c1cccc(Oc2ccc(Cl)cc2)c1 (relative stereo) [Compound (G) trans-] |  |  |  |  |  |  |  |  |  | 85% | 100% |  | 1.7 µg/mL (≈ 3.77 µM) | 0.12 | C (TLm (48 hrs.) value <0.5 ppm for carp, wherein toxicity to fishes is so strongly observed by usual application that both the application method and application area are strictly restricted.) | 380 µg/mL (≈ 843 µM) | 0.09 µg/mL (≈ 0.2 µM)
